Measurements as given in US6610471B1, “Methods and compositions to investigate infection by hepatitis B virus and agents to prevent and treat the infection” (priority 1998, dated 2003).

Tested on: HBV
Assay: Intracellular HBV replicative intermediates in HBV baculovirus infected HepG2 cells (Southern blot, densitometry)
Assay type: cell-based, hepatitis B virus
Details: 50 pfu/cell
Description: On the indicated days (3, 6, and 9 days of drug treatment) HBV replication in HepG2 cultures was assessed by examining extracellular HBV DNA and intracellular replicative intermediates.
(T). […] Relaxed circular (RC) and double-stranded (DS) forms of HBV DNA are indicated. […] (T). […] Replicative intermediates were analyzed by Southern blotting. Double-stranded (DS) and single-stranded (SS) forms of HBV genomic DNA are indicated.
HepG2 cells were seeded at approximately 20% to 40% confluency and then were grown for 16 to 24 hours before infection. On the day of infection, duplicate plates of cells were trypsinized, and viable cell number was determined with a hemocytometer using Trypan blue exclusion. Average cell counts were calculated and used to determine the volume of high-titer viral stock necessary to infect cells at the indicated moi. Baculovirus was diluted into MEM-FBS to achieve the appropriate moi using volumes of 1.0 and 0.25 mL to infect 100-mm and 35-mm dishes, respectively. Baculovirus was adsorbed to HepG2 cells for one hour at 37° C. with gentle rocking every 15 minutes to ensure that the inoculum was evenly distributed. The inoculum was then aspirated and HepG2 cells were washed two times with phosphate-buffered saline and refed MEM-FBS.
HBV core particles were isolated from the cytoplasmic fraction of HepG2 cells lysed in 0.5% Np40. Cytoplasmic extracts were adjusted to 10 mmol/L MgCl2 and unprotected DNA was removed by an incubation with 500 μg/mL DNasel for 1 hour at 37° C. Samples were then adjusted to 50 mmol/L ethylenediaminetetraacetic acid, 50 mmol/L Tris, 0.5% sodium dodecyl sulfate, and digested with 500 μg/mL. Proteinase K for 1.5 hours at 37° C. Following sequential phenol and chloroform extractions, nucleic acids were recovered by ethanol precipitation. Nucleic acids were resuspended in 50 μL TE (10 mmol/L Tris, 1 mmol/L ethylenediaminetetraacetic acid), normalized by OD260, and digested with 100 μg/mL RNase (Boehringer Mannheim, Indianapolis, Ind.) for one hour at 37° C. before analysis by electrophoresis and Southern blotting. A Molecular Dynamics (Sunnyvale, Calif.) 100A laser densitometer equipped with Quantity One software (Protein Databases Inc., Huntington Station, N.Y.) was used to analyze suitable exposures of Southern blots.
3TC was a gift of BioChem Therapeutic Inc. (Laval, Quebec, Canada). […] Medium containing 3TC was prepared daily as needed using fresh aliquots of 3TC.

For `Nc1ccn([C@@H]2CS[C@H](CO)O2)c(=O)n1` [3TC, (−)-2′-dideoxy-3′-thiacytidine], the “intracellular HBV replicative intermediates, % Untreated Control” value (0.02 μM 3TC, P (from 16 h prior to infection), day 4 p.i. (3 days treatment)) was 82.5 % Untreated Control, the “intracellular HBV replicative intermediates, % Untreated Control” value (0.02 μM 3TC, P (from 16 h prior to infection), day 7 p.i. (6 days treatment)) was 100 % Untreated Control and the “intracellular HBV replicative intermediates, % Untreated Control” value (0.02 μM 3TC, P (from 16 h prior to infection), day 10 p.i. (9 days treatment)) was 68.2 % Untreated Control. The “intracellular HBV replicative intermediates, % Untreated Control” value (0.02 μM 3TC, T (from 24 h p.i.), day 4 p.i. (3 days treatment)) was 57.4 % Untreated Control, the “intracellular HBV replicative intermediates, % Untreated Control” value (0.02 μM 3TC, T (from 24 h p.i.), day 7 p.i. (6 days treatment)) was 100 % Untreated Control and the “intracellular HBV replicative intermediates, % Untreated Control” value (0.02 μM 3TC, T (from 24 h p.i.), day 10 p.i. (9 days treatment)) was 59.6 % Untreated Control. The “intracellular HBV replicative intermediates, % Untreated Control” value (0.2 μM 3TC, P (from 16 h prior to infection), day 4 p.i. (3 days treatment)) was 41.7 % Untreated Control, the “intracellular HBV replicative intermediates, % Untreated Control” value (0.2 μM 3TC, P (from 16 h prior to infection), day 7 p.i. (6 days treatment)) was 20.0 % Untreated Control and the “intracellular HBV replicative intermediates, % Untreated Control” value (0.2 μM 3TC, P (from 16 h prior to infection), day 10 p.i. (9 days treatment)) was 6.5 % Untreated Control. The “intracellular HBV replicative intermediates, % Untreated Control” value (0.2 μM 3TC, T (from 24 h p.i.), day 4 p.i. (3 days treatment)) was 35.0 % Untreated Control, the “intracellular HBV replicative intermediates, % Untreated Control” value (0.2 μM 3TC, T (from 24 h p.i.), day 7 p.i. (6 days treatment)) was 16.7 % Untreated Control and the “intracellular HBV replicative intermediates, % Untreated Control” value (0.2 μM 3TC, T (from 24 h p.i.), day 10 p.i. (9 days treatment)) was 6.7 % Untreated Control. For the same compound, the “intracellular HBV replicative intermediates, % Untreated Control” value (2.0 μM 3TC, P (from 16 h prior to infection), day 4 p.i. (3 days treatment)) was 8.2 % Untreated Control, the “intracellular HBV replicative intermediates, % Untreated Control” value (2.0 μM 3TC, P (from 16 h prior to infection), day 7 p.i. (6 days treatment)) was 7.1 % Untreated Control and the “intracellular HBV replicative intermediates, % Untreated Control” value (2.0 μM 3TC, P (from 16 h prior to infection), day 10 p.i. (9 days treatment)) was 1.3 % Untreated Control. For the same compound, the “intracellular HBV replicative intermediates, % Untreated Control” value (2.0 μM 3TC, T (from 24 h p.i.), day 4 p.i. (3 days treatment)) was 12.1 % Untreated Control, the “intracellular HBV replicative intermediates, % Untreated Control” value (2.0 μM 3TC, T (from 24 h p.i.), day 7 p.i. (6 days treatment)) was 8.5 % Untreated Control and the “intracellular HBV replicative intermediates, % Untreated Control” value (2.0 μM 3TC, T (from 24 h p.i.), day 10 p.i. (9 days treatment)) was 2.1 % Untreated Control.
